Test results reported in patent publication US8802663B2, “Pyrazole oxadiazole derivatives as S1P1 agonists” (Merck Serono SA, priority 2009, dated 2014).

Target: S1P1 (Homo sapiens (Human), UniProt P21453)
Experiment: 35S-GTPγS binding, membranes from CHO cells expressing S1P1
Format: biochemical
Conditions: CHO cell membranes
Method: Cells were suspended in 50 mM TRIS, pH 7.4, 2 mM EDTA, 250 mM Sucrose (buffer A) and 1× Complete protease inhibitor cocktail (Roche), and disrupted at 4° C. by N2 decompression using a cell disruption bomb (Parr Instrument). Following centrifugation at 1000 RPM for 10 min at 4° C., the supernatant was suspended in buffer A and centrifuged again at 19000 RPM for 60 min at 4° C. The pellet was then suspended in 10 mM HEPES, pH 7.4, 1 mM EDTA, 250 mM Sucrose (Buffer B), and 1× Complete EDTA-free protease inhibitor cocktail and homogenized using a potter. Membranes were flash frozen in liquid N2 and stored at −80° C. [33P]sphingosine 1-phosphate (3000 Ci/mmol; American Radiolabeled Chemicals, Inc.) was added to test compounds in DMSO. […] Specific binding was calculated by subtracting remaining radioactivity in the presence of 1000-fold excess of unlabeled SIP. Binding data were analyzed using the GraphPad Prism program.
After 60 min incubation at 30° C. on a shaker, plates were centrifuged for 10 min at 2000 RPM. […] Triplicate samples were averaged and expressed as % response relative to S1P activation in absence of compound (n=2).

Sequence of S1P1 (P21453 whole entry, species assumed): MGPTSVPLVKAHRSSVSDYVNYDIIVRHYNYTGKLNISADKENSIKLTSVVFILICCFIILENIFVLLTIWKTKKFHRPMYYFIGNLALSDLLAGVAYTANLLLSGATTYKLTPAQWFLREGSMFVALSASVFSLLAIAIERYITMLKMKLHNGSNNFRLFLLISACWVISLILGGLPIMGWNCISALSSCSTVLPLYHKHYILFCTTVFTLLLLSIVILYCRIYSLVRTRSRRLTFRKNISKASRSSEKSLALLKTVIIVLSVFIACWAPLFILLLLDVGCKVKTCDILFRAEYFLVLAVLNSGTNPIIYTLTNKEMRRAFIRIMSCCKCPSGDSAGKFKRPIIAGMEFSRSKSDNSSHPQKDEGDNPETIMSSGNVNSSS

Row | Compound | EC50 [nM]
1 | Fc1ccc(F)c(-c2noc(-c3cnn(-c4ccccc4F)c3-c3ccccc3)n2)c1 [Example 2, 3-(2,5-difluorophenyl)-5-[1-(2-fluorophenyl)-5-phenyl-1H-pyrazol-4-yl]-1,2,4-oxadiazole] | 24
2 | COc1ccccc1-n1ncc(-c2nc(-c3cc(F)ccc3F)no2)c1-c1ccccc1 [Example 4, 3-(2,5-difluorophenyl)-5-[1-(2-methoxyphenyl)-5-phenyl-1H-pyrazol-4-yl]-1,2,4-oxadiazole] | 284
3 | CC(C)Cn1cc(-c2nc(-c3cc(F)ccc3F)no2)c(-c2ccccc2)n1 [Example 7, 3-(2,5-difluorophenyl)-5-(1-isobutyl-3-phenyl-1H-pyrazol-4-yl)-1,2,4-oxadiazole] | 288
4 | CC(C)n1ncc(-c2nc(-c3cc(F)ccc3F)no2)c1-c1ccccc1 [Example 10, 3-(2,5-difluorophenyl)-5-(1-isopropyl-5-phenyl-1H-pyrazol-4-yl)-1,2,4-oxadiazole] | 172
5 | CCCn1ncc(-c2nc(-c3cc(F)ccc3F)no2)c1-c1ccccc1 [Example 14, 3-(2,5-difluorophenyl)-5-(5-phenyl-1-propyl-1H-pyrazol-4-yl)-1,2,4-oxadiazole] | 201
6 | Cc1c(-c2nc(-c3cc(F)ccc3F)no2)cnn1-c1ccccc1 [Example 15, 3-(2,5-difluorophenyl)-5-(5-methyl-1-phenyl-1H-pyrazol-4-yl)-1,2,4-oxadiazole] | 192
7 | Cn1cc(-c2nc(-c3cc(F)ccc3F)no2)c(C(C)(C)C)n1 [Example 16, 5-(3-tert-butyl-1-methyl-1H-pyrazol-4-yl)-3-(2,5-difluorophenyl)-1,2,4-oxadiazole] | 901
8 | COCc1c(-c2nc(-c3cc(F)ccc3F)no2)cnn1CC(C)C [Example 17, 3-(2,5-difluorophenyl)-5-(1-isobutyl-5-(methoxymethyl)-1H-pyrazol-4-yl)-1,2,4-oxadiazole] | 648
9 | CCc1c(-c2nc(-c3cc(F)ccc3F)no2)cnn1CC(C)C [Example 18, 3-(2,5-difluorophenyl)-5-(5-ethyl-1-isobutyl-1H-pyrazol-4-yl)-1,2,4-oxadiazole] | 776
10 | CCOC(=O)Cn1ncc(-c2nc(-c3cc(F)ccc3F)no2)c1-c1ccncc1 [Example 20, ethyl {4-[3-(2,5-difluorophenyl)-1,2,4-oxadiazol-5-yl]-5-pyridin-4-yl-1H-pyrazol-1-yl}acetate] | 172
11 | CCCc1c(-c2nc(-c3cc(F)ccc3F)no2)cnn1-c1ccccc1 [Example 21, 3-(2,5-difluorophenyl)-5-(1-phenyl-5-propyl-1H-pyrazol-4-yl)-1,2,4-oxadiazole] | 81
12 | CCCc1c(-c2nc(-c3cccc(S(C)(=O)=O)c3)no2)cnn1-c1ccccc1 [Example 22] | 370
13 | Fc1ccc(F)c(-c2noc(-c3cnn(CC(F)(F)F)c3-c3ccncc3)n2)c1 [Example 24, 3-(2,5-difluorophenyl)-5-(5-(pyridin-4-yl)-1-(2,2,2-trifluoroethyl)-1H-pyrazol-4-yl)-1,2,4-oxadiazole] | 292
14 | Fc1ccc(F)c(-c2noc(-c3cnn(Cc4ccccc4)c3-c3ccncc3)n2)c1 [Example 25, 4-{1-benzyl-4-[3-(2,5-difluorophenyl)-1,2,4-oxadiazol-5-yl]-1H-pyrazol-5-yl}pyridine] | 148
15 | COCc1c(-c2nc(-c3cc(F)ccc3F)no2)cnn1C1CCCCC1 [Example 27, 5-[1-cyclohexyl-5-(methoxymethyl)-1H-pyrazol-4-yl]-3-(2,5-difluorophenyl)-1,2,4-oxadiazole] | 27
16 | CC(C)Cn1ncc(-c2nc(-c3cc(F)ccc3F)no2)c1C1CCOCC1 [Example 32, 3-(2,5-difluorophenyl)-5-[1-isobutyl-5-(tetrahydro-2H-pyran-4-yl)-1H-pyrazol-4-yl]-1,2,4-oxadiazole] | 180
17 | Fc1ccc(F)c(-c2noc(-c3cnn(CCNC4CC4)c3-c3ccccc3)n2)c1 [Example 35, N-(2-{4-[3-(2,5-difluorophenyl)-1,2,4-oxadiazol-5-yl]-5-phenyl-1H-pyrazol-1-yl}ethyl)cyclopropanamine] | 931
18 | CC(C)Cn1ncc(-c2nc(-c3ccc4c(c3)CNCC4)no2)c1-c1ccncc1 [Example 36, 7-[5-(1-isobutyl-5-pyridin-4-yl-1H-pyrazol-4-yl)-1,2,4-oxadiazol-3-yl]-1,2,3,4-tetrahydroisoquinoline] | 114
19 | CC(C)Cn1ncc(-c2nc(-c3cccc(S(C)(=O)=O)c3)no2)c1-c1ccncc1 [Example 43, 4-(1-isobutyl-4-{3-[3-(methylsulfonyl)phenyl]-1,2,4-oxadiazol-5-yl}-1H-pyrazol-5-yl)pyridine] | 292
20 | Fc1ccc(F)c(-c2noc(-c3cnn(C4CCC4)c3-c3ccncc3)n2)c1 [Example 44, 4-{1-cyclobutyl-4-[3-(2,5-difluorophenyl)-1,2,4-oxadiazol-5-yl]-1H-pyrazol-5-yl}pyridine] | 402
21 | OC1CCN(Cc2ccc(-c3noc(-c4cnn(C5CCCCC5)c4-c4ccncc4)n3)cc2)C1 (stereo not shown) [Example 45, 1-{4-[5-(1-cyclohexyl-5-pyridin-4-yl-1H-pyrazol-4-yl)-1,2,4-oxadiazol-3-yl]benzyl}pyrrolidin-3-ol] | 10
22 | COCc1c(-c2nc(-c3ccc(CO)cc3)no2)cnn1C1CCCCC1 [Example 49, (4-{5-[1-cyclohexyl-5-(methoxymethyl)-1H-pyrazol-4-yl]-1,2,4-oxadiazol-3-yl}phenyl)methanol] | 229
23 | CC(C)Cn1ncc(-c2nc(-c3cccc(C(F)(F)F)c3)no2)c1C1CCOCC1 [Example 50, 5-[1-isobutyl-5-(tetrahydro-2H-pyran-4-yl)-1H-pyrazol-4-yl]-3-[3-(trifluoromethyl)phenyl]-1,2,4-oxadiazole] | 211
24 | CC(C)Cn1ncc(-c2nc(-c3ccc(CO)cc3)no2)c1-c1ccncc1 [Example 54, {4-[5-(1-isobutyl-5-pyridin-4-yl-1H-pyrazol-4-yl)-1,2,4-oxadiazol-3-yl]phenyl}methanol] | 189

Other lines, results leading:

Row | EC50 [nM] | Compound
25 | 29 | CS(=O)(=O)c1cccc(-c2noc(-c3cnn(C4CCCCC4)c3-c3ccncc3)n2)c1 [Example 26, 4-(1-cyclohexyl-4-{3-[3-(methylsulfonyl)phenyl]-1,2,4-oxadiazol-5-yl}-1H-pyrazol-5-yl)pyridine]
26 | 24 | OCc1ccc(-c2noc(-c3cnn(C4CCCCC4)c3-c3ccncc3)n2)cc1 [Example 29, {4-[5(1-cyclohexyl-5-pyridin-4-yl-1H-pyrazol-4-yl)-1,2,4-oxadiazol-3-yl]phenyl}methanol]
27 | 20 | Fc1ccc(F)c(-c2noc(-c3cnn(C4CCCC4)c3-c3ccncc3)n2)c1 [Example 30, 4-{1-cyclopentyl-4-[3-(2,5-difluorophenyl)-1,2,4-oxadiazol-5-yl]-1H-pyrazol-5-yl}Pyridine]
28 | 216 | Fc1ccc(F)c(-c2noc(-c3cnn(C4CCOCC4)c3-c3ccccc3)n2)c1 [Example 33, 3-(2,5-difluorophenyl)-5-[5-phenyl-1-(tetrahydro-2H-pyran-4-yl)-1H-pyrazol-4-yl]-1,2,4-oxadiazole]
29 | 16 | c1cc(-c2c(-c3nc(-c4ccc5c(c4)CNCC5)no3)cnn2C2CCCCC2)ccn1 [Example 39, 7-[5-(1-cyclohexyl-5-pyridin-4-yl-1H-pyrazol-4-yl)-1,2,4-oxadiazol-3-yl]-1,2,3,4-tetrahydroisoquinoline]
30 | 26 | C[C@H]1CCCC[C@@H]1n1ncc(-c2nc(-c3cc(F)ccc3F)no2)c1-c1ccccc1 [Example 46, 3-(2,5-difluorophenyl)-5-{1-[(1S,2S)-2-methylcyclohexyl]-5-phenyl-1H-pyrazol-4-yl}-1,2,4-oxadiazole]
31 | 47 | Cc1ccccc1-c1c(-c2nc(-c3cc(F)ccc3F)no2)cnn1C1CCCCC1 [Example 48, 5-[1-cyclohexyl-5-(2-methylphenyl)-1H-pyrazol-4-yl]-3-(2,5-difluorophenyl)-1,2,4-oxadiazole]
32 | 310 | c1ccc(-c2nc(-c3cnn(C4CCCCC4)c3-c3ccccc3)no2)cc1 [Example 51, 3-(1-cyclohexyl-5-phenyl-1H-pyrazol-4-yl)-5-phenyl-1,2,4-oxadiazole]
33 | 313 | Fc1ccccc1-c1nc(-c2cnn(C3CCCCC3)c2-c2ccccc2)no1 [Example 52, 3-(1-cyclohexyl-5-phenyl-1H-pyrazol-4-yl)-5-(2-fluorophenyl)-1,2,4-oxadiazole]
34 | 164 | c1ccc(-c2c(-c3noc(-c4cccnc4)n3)cnn2C2CCCCC2)cc1 [Example 53, 3-[3-(1-cyclohexyl-5-phenyl-1H-pyrazol-4-yl)-1,2,4-oxadiazol-5-yl]pyridine]
35 | 24 | CNCc1ccc(-c2noc(-c3cnn(C4CCCCC4)c3-c3ccncc3)n2)cc1 [Example 55, 1-{4-[5-(1-cyclohexyl-5-pyridin-4-yl-1H-pyrazol-4-yl)-1,2,4-oxadiazol-3-yl]phenyl}-N-methylmethanamine]
36 | 11 | OCCNCc1ccc(-c2noc(-c3cnn(C4CCCCC4)c3-c3ccncc3)n2)cc1 [Example 56, 2-({4-[5-(1-cyclohexyl-5-pyridin-4-yl-1H-pyrazol-4-yl)-1,2,4-oxadiazol-3-yl]benzyl}amino)ethanol]
37 | 49 | Fc1ccc(F)c(-c2nc(-c3cnn(C4CCCCC4)c3-c3ccccc3)no2)c1 [Example 57, 3-(1-cyclohexyl-5-phenyl-1H-pyrazol-4-yl)-5-(2,5-difluorophenyl)-1,2,4-oxadiazole]
